# Results reported in ChEMBL document CHEMBL5523686, “Medicinal chemistry perspectives on the development of piperazine-containing HIV-1 inhibitors” (Bioorg Med Chem, 2024).
# Columns and labels:
# [1] = tested on: Human immunodeficiency virus 2; test: Antiviral activity against HIV-2 ROD infected in human MT4 cells assessed as inhibition of viral replication measured after 5 days by MTT spectrophotometric assay; type: functional, organism-based; details: Human immunodeficiency virus 2, ROD, MT4, 120 h
# [2] = tested on: Human immunodeficiency virus 1; test: Antiviral activity against HIV-1 3B infected in human MT4 cells assessed as inhibition of viral replication incubated for 5 days by MTT assay; type: functional, organism-based; details: Human immunodeficiency virus 1, 3B, MT4, 120 h
# [3] = tested on: Human immunodeficiency virus 1; test: Antiviral activity against HIV-1 IIIB infected in human MT4 cells assessed as inhibition of viral replication measured after 5 days by MTT spectrophotometric assay; type: functional, organism-based; details: Human immunodeficiency virus 1, IIIB, MT4, 120 h
# [4] = tested on: Human immunodeficiency virus 1; test: Antiviral activity against HIV1 IIIB infected in human MT4 cells assessed as inhibition of viral replication incubated for 3 to 7 days by MTT analysis; type: functional, organism-based; details: Human immunodeficiency virus 1, IIIB
# [5] = tested on: Human immunodeficiency virus 1; test: Antiviral activity against HIV1 Env pseudotyped virus infected in human HEK293T cells assessed as inhibition of viral growth incubated for 72 hrs by luciferase assay; type: functional, organism-based; details: Human immunodeficiency virus 1, HEK-293T
# [6] = tested on: Human immunodeficiency virus 1; test: Antiviral activity against wild type HIV1 IIIB infected in human MT4 cells assessed as inhibition of viral replication incubated for 3 to 5 days by MTT analysis; type: functional, organism-based; details: Human immunodeficiency virus 1, IIIB
# [7] = Aqueous solubility of compound at pH 7; type: physicochemical
structure (smiles),measurement,setting,value
O=C1Nc2ccc(Cl)cc2[C@@](C#CC2CC2)(C(F)(F)F)N1,IC50,[1],2.22 µg/mL
same,IC50,[2],813 nM
same,IC50,[3],2.22 µg/mL
Cn1c(N2CCNCC2)c(/N=N/c2ccc(Cl)cc2)c(N)nc1=O,EC50,[4],> 3030 nM
COc1cnc(-n2cnc(C)n2)c2[nH]cc(C(=O)C(=O)N3CC(C)N(C(=O)c4ccccc4)C(C)C3)c12 (stereo not drawn),IC50,[5],0.14 nM
Cc1cc(C#N)cc(C)c1Oc1ccnc(Nc2ccc(N3CCN(S(C)(=O)=O)CC3)nc2)n1,EC50,[6],2 nM
Cc1cc(C#N)cc(C)c1Oc1ccnc(Nc2ccc(N3CCN(S(C)(=O)=O)CC3)c(C#N)c2)n1,solubility,[7],13.5 µg/mL
same,EC50,[6],1 nM
